According to publication PMC2782309 (2009):

Target: TRPM2 (transient receptor potential cation channel, subfamily melastatin, member 2) (Homo sapiens, UniProt O94759)
Experiment: whole-cell patch clamp with ADPR infused through the pipette
Assay type: cell-based

Chain of TRPM2 (transient receptor potential cation channel, subfamily melastatin, member 2) (O94759 whole entry, the tested form may be a part): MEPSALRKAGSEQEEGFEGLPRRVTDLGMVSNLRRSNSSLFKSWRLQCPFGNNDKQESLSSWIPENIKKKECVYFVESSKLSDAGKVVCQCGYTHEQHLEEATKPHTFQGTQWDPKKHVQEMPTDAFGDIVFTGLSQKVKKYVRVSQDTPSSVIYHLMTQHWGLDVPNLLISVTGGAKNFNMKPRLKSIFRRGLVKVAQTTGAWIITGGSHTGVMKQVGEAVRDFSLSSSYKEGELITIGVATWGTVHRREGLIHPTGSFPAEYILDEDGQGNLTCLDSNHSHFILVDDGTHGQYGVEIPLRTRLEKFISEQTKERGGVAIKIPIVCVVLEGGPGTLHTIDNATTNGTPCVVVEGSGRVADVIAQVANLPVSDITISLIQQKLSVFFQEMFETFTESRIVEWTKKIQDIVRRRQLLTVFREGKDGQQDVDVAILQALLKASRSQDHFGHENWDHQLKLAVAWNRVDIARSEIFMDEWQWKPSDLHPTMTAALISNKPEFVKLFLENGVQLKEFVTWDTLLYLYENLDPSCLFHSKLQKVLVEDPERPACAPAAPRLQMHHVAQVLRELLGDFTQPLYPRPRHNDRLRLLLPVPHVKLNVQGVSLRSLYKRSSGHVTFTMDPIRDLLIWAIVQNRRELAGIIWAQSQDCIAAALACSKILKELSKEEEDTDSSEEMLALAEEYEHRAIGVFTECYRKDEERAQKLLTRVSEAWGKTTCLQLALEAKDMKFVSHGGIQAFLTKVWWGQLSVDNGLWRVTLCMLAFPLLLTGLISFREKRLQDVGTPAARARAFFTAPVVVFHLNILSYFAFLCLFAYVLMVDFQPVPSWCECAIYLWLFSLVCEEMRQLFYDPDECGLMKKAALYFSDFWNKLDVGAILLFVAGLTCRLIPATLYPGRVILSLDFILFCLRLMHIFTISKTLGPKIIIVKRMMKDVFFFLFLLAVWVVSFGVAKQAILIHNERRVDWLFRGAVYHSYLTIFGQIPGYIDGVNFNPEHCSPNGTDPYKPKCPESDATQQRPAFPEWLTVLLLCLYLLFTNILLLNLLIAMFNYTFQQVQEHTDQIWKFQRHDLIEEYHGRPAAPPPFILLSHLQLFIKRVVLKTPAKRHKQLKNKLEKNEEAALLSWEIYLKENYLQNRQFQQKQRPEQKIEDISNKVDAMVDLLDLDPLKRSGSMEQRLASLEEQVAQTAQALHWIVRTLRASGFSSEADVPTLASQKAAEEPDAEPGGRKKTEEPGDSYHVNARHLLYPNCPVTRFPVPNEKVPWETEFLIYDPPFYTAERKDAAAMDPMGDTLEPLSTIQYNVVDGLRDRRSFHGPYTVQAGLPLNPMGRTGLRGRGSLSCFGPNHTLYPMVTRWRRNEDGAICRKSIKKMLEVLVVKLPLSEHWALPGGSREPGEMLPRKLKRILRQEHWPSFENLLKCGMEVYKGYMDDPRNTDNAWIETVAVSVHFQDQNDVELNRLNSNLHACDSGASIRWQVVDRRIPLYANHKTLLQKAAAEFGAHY

EC50: 133 µM
SMILES: Nc1ncnc2c1ncn2[C@@H]1O[C@H](COP(=O)(O)OP(=O)(O)OC[C@H]2OC(O)[C@H](O)[C@@H]2O)[C@@H](O)[C@H]1O (stereo partly shown) [ADPR]
